*1 amine or outer side, *2 acyl side, *3 side chain or, on linkers, in order; H or OH if unused. Where a SMILES comes first, the peptide text is derived from it. Side-chain parts run from the residue outwards. [ ]: non-standard residue; d: D form. The star is where a group is joined. γGlu = O=C(O)[C@H](CCC(=O)[*:2])N[*:1]; Stearoyl = CCCCCCCCCCCCCCCCCC(=O)*; Palmitoyl = CCCCCCCCCCCCCCCC(=O)*; Myristoyl = CCCCCCCCCCCCCC(=O)*; Nle = CCCC[C@H](N)C(=O)O; AEEA = NCCOCCOCC(=O)O; Aib = CC(C)(N)C(=O)O
Molecular target: T1, RXFP1 (Homo sapiens, UniProt Q9HBX9)
T1 construct: OVCAR5 cells expressing endogenous RXFP1; endogenous in cells; host or cells: OVCAR5 cells
T1 sequence (Q9HBX9 1-757): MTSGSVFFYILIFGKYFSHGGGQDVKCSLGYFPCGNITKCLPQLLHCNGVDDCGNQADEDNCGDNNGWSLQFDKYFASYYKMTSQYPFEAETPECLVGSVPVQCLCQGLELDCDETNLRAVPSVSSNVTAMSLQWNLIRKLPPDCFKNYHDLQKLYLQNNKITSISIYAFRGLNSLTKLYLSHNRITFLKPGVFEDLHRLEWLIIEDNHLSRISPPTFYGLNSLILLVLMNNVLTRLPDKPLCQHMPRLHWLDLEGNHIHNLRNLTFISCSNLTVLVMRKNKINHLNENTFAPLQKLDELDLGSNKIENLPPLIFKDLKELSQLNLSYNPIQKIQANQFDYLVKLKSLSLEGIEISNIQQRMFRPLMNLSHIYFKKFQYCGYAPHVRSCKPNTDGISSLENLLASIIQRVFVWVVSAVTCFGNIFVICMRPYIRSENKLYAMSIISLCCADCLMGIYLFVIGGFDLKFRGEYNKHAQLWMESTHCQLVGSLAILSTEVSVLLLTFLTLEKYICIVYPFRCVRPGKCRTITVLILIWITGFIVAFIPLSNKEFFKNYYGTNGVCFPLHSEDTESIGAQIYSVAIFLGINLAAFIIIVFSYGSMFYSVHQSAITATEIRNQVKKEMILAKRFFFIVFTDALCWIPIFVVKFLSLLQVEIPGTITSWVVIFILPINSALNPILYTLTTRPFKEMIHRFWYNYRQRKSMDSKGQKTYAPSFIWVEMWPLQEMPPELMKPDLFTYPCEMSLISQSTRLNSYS
Assay: OVCAR5 cAMP assay (HTRF), RXFP1 agonist activity
Assay type: cell-based
Conditions: for EC50: OVCAR5 cells, cAMP HTRF, read-out: EC50 (nM), OVCAR 5 cells (cAMP); for Emax: OVCAR-5, maximal cAMP relative to H2-relaxin maximum (100%), read-out: EMax, OVCAR 5 cells (cAMP)
Procedure, shortened: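 cAMP accumulation readout: after 1 mM IBMX for 40 min, endogenous-RXFP1 OVCAR5 cells got rising peptide concentrations without FCS, 30 min, 37° C, then lysis with HTRF cAMP reagents. Nonlinear regression gave EC50; Emax expressed relative to H2-relaxin maximum, same occasion.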

Question: Which results are given for `CCCCCCCCCCCCCC(=O)N[C@@H](CCC(=O)N[C@@H](CCC(=O)N[C@@H](CCC(=O)NCCOCCOCC(=O)NCCOCCOCC(=O)NCCOCCOCC(=O)NCCCC[C@H](NC(=O)[C@H](CCCCNC(C)=O)NC(=O)[C@H](CCCCN)NC(=O)[C@H](CCCNC(=N)N)NC(=O)C(C)(C)NC(=O)[C@H](CO)NC(=O)[C@H](Cc1c[nH]c2ccccc12)NC(=O)[C@@H](NC(=O)[C@H](CO)NC(=O)[C@H](CCCC)NC(=O)CNC(=O)[C@H](CCC(=O)O)NC(=O)C(C)(C)NC(=O)C(C)(C)NC(=O)[C@@H](NC(=O)[C@H](CCCCNC(C)=O)NC(=O)[C@H](C)NC(=O)[C@H](CCCNC(=N)N)NC(=O)[C@@H](NC(=O)[C@H](CCCCN)NC(=O)[C@H](CCC(=O)O)NC(=O)[C@H](CCCNC(=N)N)NC(=O)CNC(=O)[C@H](CCC(=O)O)NC(=O)[C@H](CC(C)C)NC(C)=O)C(C)C)[C@@H](C)CC)[C@@H](C)O)C(N)=O)C(=O)O)C(=O)O)C(=O)O` [compound 178] (Ac-LEGREKVRAK(Ac)I[Aib][Aib]EG[Nle]STWS[Aib]RKK(Ac)K([AEEA-AEEA-AEEA-γGlu-γGlu-γGlu-Myristoyl])-NH2)?
Answer: EC50: 17.6 nM; Emax: 93%

Question: Which results are given for `CCCCCCCCCCCCCCCC(=O)N[C@@H](CCC(=O)N[C@@H](CCC(=O)N[C@@H](CCC(=O)NCCOCCOCC(=O)NCCOCCOCC(=O)NCCOCCOCC(=O)NCCOCCOCC(=O)NCCCC[C@H](NC(=O)[C@H](CCCCNC(C)=O)NC(=O)[C@H](CCCCN)NC(=O)[C@H](CCCNC(=N)N)NC(=O)C(C)(C)NC(=O)[C@H](CO)NC(=O)[C@H](Cc1c[nH]c2ccccc12)NC(=O)[C@@H](NC(=O)[C@H](CO)NC(=O)[C@H](CCCC)NC(=O)CNC(=O)[C@H](CCC(=O)O)NC(=O)C(C)(C)NC(=O)C(C)(C)NC(=O)[C@@H](NC(=O)[C@H](CCCCNC(C)=O)NC(=O)[C@H](C)NC(=O)[C@H](CCCNC(=N)N)NC(=O)[C@@H](NC(=O)[C@H](CCCCN)NC(=O)[C@H](CCC(=O)O)NC(=O)[C@H](CCCNC(=N)N)NC(=O)CNC(=O)[C@H](CCC(=O)O)NC(=O)[C@H](CC(C)C)NC(C)=O)C(C)C)[C@@H](C)CC)[C@@H](C)O)C(N)=O)C(=O)O)C(=O)O)C(=O)O` [compound 64] (Ac-LEGREKVRAK(Ac)I[Aib][Aib]EG[Nle]STWS[Aib]RKK(Ac)K([AEEA-AEEA-AEEA-AEEA-γGlu-γGlu-γGlu-Palmitoyl])-NH2)?
Answer: EC50: 0.2 nM; Emax: 81%

Question: Which Emax does the source give for `CCCCCCCCCCCCCCCCCC(=O)N[C@@H](CCC(=O)N[C@@H](CCC(=O)N[C@@H](CCC(=O)NCCOCCOCC(=O)NCCOCCOCC(=O)NCCCC[C@H](NC(=O)[C@H](CCCCN)NC(=O)[C@H](CCCCN)NC(=O)[C@H](CCCNC(=N)N)NC(=O)C(C)(C)NC(=O)[C@H](CO)NC(=O)[C@H](Cc1c[nH]c2ccccc12)NC(=O)[C@@H](NC(=O)[C@H](CO)NC(=O)[C@H](CCCC)NC(=O)CNC(=O)[C@H](CCC(=O)O)NC(=O)C(C)(C)NC(=O)C(C)(C)NC(=O)[C@@H](NC(=O)[C@H](CCC(N)=O)NC(=O)C(C)(C)NC(=O)[C@H](CCCNC(=N)N)NC(=O)[C@@H](NC(=O)[C@H](CCCCN)NC(=O)[C@H](CCC(=O)O)NC(=O)[C@H](CCCNC(=N)N)NC(=O)CNC(=O)[C@H](CCC(=O)O)NC(=O)[C@H](CC(C)C)NC(C)=O)C(C)C)[C@@H](C)CC)[C@@H](C)O)C(N)=O)C(=O)O)C(=O)O)C(=O)O` [compound 69] (Ac-LEGREKVR[Aib]QI[Aib][Aib]EG[Nle]STWS[Aib]RKKK([AEEA-AEEA-γGlu-γGlu-γGlu-Stearoyl])-NH2) here?
Answer: 87%
